According to the CheMixHub ionic liquid set:

Test: xn = mol fraction of the nth substance listed
Conditions: for electrical conductivity: 101 kPa

CCCCCCCCCCCCCC[n+]1ccccc1.O=C([O-])C(O)c1ccccc1 + C[C@H](N)C(=O)O + O
electrical conductivity [S/m]
Conditions | 293.15 K | 298.15 K | 303.15 K | 308.15 K | 313.15 K
x1 = 5.26e-06, x2 = 0.001799 | 0.00177 | 0.00202 | 0.00228 | 0.00255 | 0.00285
x1 = 6.85e-06, x2 = 0 | 0.00248 | 0.00278 | 0.00309 | 0.0034 | 0.0037
x1 = 7.23e-06, x2 = 0.0009002 | 0.00232 | 0.00263 | 0.00296 | 0.00329 | 0.0036
x1 = 1.107e-05, x2 = 0.001799 | 0.00339 | 0.00385 | 0.0043 | 0.00479 | 0.0053
x1 = 1.32e-05, x2 = 0.0009002 | 0.00408 | 0.00462 | 0.00517 | 0.0057 | 0.0063
x1 = 1.424e-05, x2 = 0 | 0.00472 | 0.00529 | 0.00587 | 0.0065 | 0.0071
x1 = 1.688e-05, x2 = 0.001799 | 0.00492 | 0.00558 | 0.00625 | 0.007 | 0.0077
x1 = 1.79e-05, x2 = 0.0009002 | 0.00545 | 0.00618 | 0.0069 | 0.0077 | 0.0084
x1 = 2.126e-05, x2 = 0 | 0.00671 | 0.0076 | 0.0084 | 0.0093 | 0.0101
x1 = 2.178e-05, x2 = 0.001799 | 0.00627 | 0.00713 | 0.008 | 0.0088 | 0.0098
x1 = 2.206e-05, x2 = 0.0009002 | 0.0066 | 0.0075 | 0.0084 | 0.0093 | 0.0102
x1 = 2.64e-05, x2 = 0.0009002 | 0.00784 | 0.0089 | 0.0099 | 0.011 | 0.0121
x1 = 2.686e-05, x2 = 0.001799 | 0.00759 | 0.0086 | 0.0097 | 0.0107 | 0.0118
x1 = 2.811e-05, x2 = 0 | 0.0086 | 0.0097 | 0.0108 | 0.0122 | 0.0131
x1 = 3.092e-05, x2 = 0.0009002 | 0.0091 | 0.0103 | 0.0115 | 0.0128 | 0.014
x1 = 3.158e-05, x2 = 0.001799 | 0.0088 | 0.01 | 0.0112 | 0.0124 | 0.0137
x1 = 3.46e-05, x2 = 0 | 0.0103 | 0.0116 | 0.0129 | 0.0145 | 0.0157
x1 = 3.653e-05, x2 = 0.0009002 | 0.0105 | 0.0119 | 0.0133 | 0.0148 | 0.0163
x1 = 3.702e-05, x2 = 0.001799 | 0.0101 | 0.0114 | 0.0128 | 0.0143 | 0.0158
x1 = 4.108e-05, x2 = 0 | 0.0117 | 0.0131 | 0.0146 | 0.0161 | 0.0179
x1 = 4.376e-05, x2 = 0.0009001 | 0.0119 | 0.0135 | 0.015 | 0.0168 | 0.0186
x1 = 4.392e-05, x2 = 0.001799 | 0.0113 | 0.0128 | 0.0143 | 0.016 | 0.0178
x1 = 4.811e-05, x2 = 0 | 0.0129 | 0.0144 | 0.0161 | 0.0179 | 0.0198
x1 = 5.045e-05, x2 = 0.0009001 | 0.0129 | 0.0146 | 0.0163 | 0.0184 | 0.0203
x1 = 5.136e-05, x2 = 0.001799 | 0.0124 | 0.0139 | 0.0156 | 0.0175 | 0.0195
x1 = 5.388e-05, x2 = 0 | 0.0137 | 0.0154 | 0.0172 | 0.0191 | 0.0211
x1 = 5.768e-05, x2 = 0.0009001 | 0.014 | 0.0158 | 0.0177 | 0.0198 | 0.022
x1 = 5.861e-05, x2 = 0.001799 | 0.0134 | 0.0151 | 0.0169 | 0.019 | 0.0211
x1 = 5.982e-05, x2 = 0 | 0.0145 | 0.0163 | 0.0182 | 0.0202 | 0.0224
x1 = 6.383e-05, x2 = 0.0009001 | 0.0148 | 0.0168 | 0.0188 | 0.021 | 0.0233
x1 = 6.559e-05, x2 = 0 | 0.0153 | 0.0172 | 0.0192 | 0.0213 | 0.0236
x1 = 6.569e-05, x2 = 0.001799 | 0.0143 | 0.0161 | 0.0181 | 0.0201 | 0.0224
x1 = 6.998e-05, x2 = 0.0009001 | 0.0157 | 0.0177 | 0.0198 | 0.0222 | 0.0246
x1 = 7.081e-05, x2 = 0 | 0.016 | 0.018 | 0.02 | 0.0223 | 0.0246
x1 = 7.222e-05, x2 = 0.001799 | 0.0151 | 0.0171 | 0.0192 | 0.0214 | 0.0236
x1 = 7.595e-05, x2 = 0.0009001 | 0.0165 | 0.0187 | 0.0209 | 0.0234 | 0.026
x1 = 7.604e-05, x2 = 0 | 0.0167 | 0.0187 | 0.0209 | 0.0232 | 0.0258
x1 = 7.839e-05, x2 = 0.001799 | 0.0159 | 0.018 | 0.0201 | 0.0225 | 0.0251
x1 = 8.072e-05, x2 = 0 | 0.0173 | 0.0194 | 0.0217 | 0.0241 | 0.0266

CCO + C[N+](C)(C)CCC[n+]1ccccc1.N#C[N-]C#N.N#C[N-]C#N
100 kPa, x2 = 0
Conditions | viscosity [mPa·s]
293.15 K | 1.19
303.15 K | 0.991
313.15 K | 0.828
323.15 K | 0.705
333.15 K | 0.593

CC(C)C[P+](C)(CC(C)C)CC(C)C.Cc1ccc(S(=O)(=O)[O-])cc1 + O=S1(=O)CCCC1
101.33 kPa, x1 = 0.5
Conditions | viscosity [mPa·s]
303.18 K | 216
313.18 K | 122
323.15 K | 69
333.13 K | 44.4
343.09 K | 27.4
353.11 K | 18.5

C[N+](C)(CCO)CCOCCO.[Cl-] + NC(N)=O
100 kPa, x1 = 0.5
Conditions | viscosity [mPa·s]
283.15 K | 19700
288.15 K | 10900
293.15 K | 5978
298.15 K | 3500
303.15 K | 2189
308.15 K | 1389
313.15 K | 903
318.15 K | 616
323.15 K | 424
328.15 K | 305
333.15 K | 221
338.15 K | 166
343.15 K | 126
348.15 K | 97.9
353.15 K | 77.4
